We go through 1 compound from patent US6448232B1, “Method of using dihydrochalcone derivatives to block glucose transfer” (priority 1999, dated 2002).

Holding throughout (assay type): in vivo
The nature of experiment [1]: Urine glucose after oral ingestion of phlorizin, no food versus in milk. As to conditions: 1 gm oral; for urine glucose: 85 kg male.
A short description of experiment [2]: Body weight during oral phlorizin three times a day on an empty stomach. As to conditions: for Weight after 3 days of phlorizin: 1.5 grams oral three times a day, 90 minutes before eating. As for the experimental part:
1.5 grams phlorizin as a dry powder in a gelatin capsule was ingested orally three times a day, 90 minutes before eating on an empty stomach. Weight measured at the same time each day with a digital electronic scale. Normal dietary conditions were maintained during the time that the phlorizin was ingested.

A short description of experiment [3]: Whole blood glucose after ingesting 100 g of carbohydrates, glucose oxidase reaction. On the procedure:
(§1) 1.5 g of phlorizin as a dry powder in a gelatin capsule was ingested one hour prior to ingesting 100 g of carbohydrates and compared to similar ingestion of carbohydrates without the prior consumption of the phlorizin. Glucose and insulin levels were measured just prior to and 30 and 60 minutes following carbohydrate ingestion and glucose levels were also measured 90 and 120 minutes after carbohydrate ingestion. Glucose levels were established by glucose oxidase reaction using whole blood and measuring the color generated with a hand-held spectrophotometer. Serum insulin was measured using commercially available immunoassay devices and methods.

Experiment [4] can be described thus: Serum insulin after ingesting 100 g of carbohydrates, immunoassay. The following applies: 1.5 g oral one hour prior to 100 g of carbohydrates. As for the experimental part:
as §1

As to `O=C(CCc1ccc(O)cc1)c1c(O)cc(O)cc1O[C@@H]1O[C@H](CO)[C@@H](O)[C@H](O)[C@H]1O` [phlorizin], the urine glucose entry in experiment [1] (in milk, 0 minutes after ingestion) was “no food: <50 mg/dl in milk: <50 mg/dl”; in experiment [1] (in milk, 90 minutes after ingestion), under 50 mg/dL; in experiment [1] (in milk, 150 minutes after ingestion), “no food: 50 mg/dl in milk: <50 mg/dl”; in experiment [1] (in milk, 210 minutes after ingestion), “no food: <50 mg/dl in milk: <50 mg/dl”; in experiment [1] (no food (empty stomach), 0 minutes after ingestion), “no food: <50 mg/dl in milk: <50 mg/dl”; in experiment [1] (no food (empty stomach), 90 minutes after ingestion), 500 mg/dL. For the same compound, the urine glucose entry is reported as “no food: 50 mg/dl in milk: <50 mg/dl” in experiment [1] (no food (empty stomach), 150 minutes after ingestion) and “no food: <50 mg/dl in milk: <50 mg/dl” in experiment [1] (no food (empty stomach), 210 minutes after ingestion). Further, the “effectiveness as a glucose blocker (urine glucose)” value in experiment [1] (no food versus in milk, conclusion in words) was “effective as a glucose blocker only if it is ingested without food on an empty stomach”. Besides, the “effect on body weight” value in experiment [2] (1.5 grams oral three times a day for 3 days, conclusion in words) is “effective in reducing body weight”. Further, the “Weight after 3 days of phlorizin” value was 189.4 lbs in experiment [2] (Experiment 1, pre-phlorizin weight 192.2 lbs.); 185.4 lbs in experiment [2] (Experiment 2, pre-phlorizin weight 193.2 lbs.); 186.8 lbs in experiment [2] (Experiment 3, pre-phlorizin weight 191.5 lbs.); 189.0 lbs in experiment [2] (Experiment 4, pre-phlorizin weight 194.4 lbs.). The GLUCOSE is 90 mg/dL in experiment [3] (1.5 g oral one hour prior to 100 g of carbohydrates, 0 minutes (just prior to carbohydrate ingestion)); 146 mg/dL in experiment [3] (1.5 g oral one hour prior to 100 g of carbohydrates, 30 minutes after carbohydrate ingestion); 144 mg/dL in experiment [3] (1.5 g oral one hour prior to 100 g of carbohydrates, 60 minutes after carbohydrate ingestion); 108 mg/dL in experiment [3] (1.5 g oral one hour prior to 100 g of carbohydrates, 90 minutes after carbohydrate ingestion); 117 mg/dL in experiment [3] (1.5 g oral one hour prior to 100 g of carbohydrates, 120 minutes after carbohydrate ingestion). Further, the “effect on postprandial rise in glucose and insulin levels” value in experiment [3] (1.5 g oral one hour prior to 100 g of carbohydrates, conclusion in words) is “able to decrease the postpandrial rise in glucose and insulin levels”. Moreover, the “prevention of reactive hypoglycemia” value in experiment [3] (glucose levels at 90 and 120 minutes with and without phlorizin, conclusion in words) is “effective in preventing reactive hypoglycemia”. The INSULIN in experiment [4] (0 minutes (just prior to carbohydrate ingestion)) was 5 microIU/ml; in experiment [4] (30 minutes after carbohydrate ingestion), 34 microIU/ml; in experiment [4] (60 minutes after carbohydrate ingestion) it was 28 microIU/ml.
